# Measured values from ChEMBL document CHEMBL4402561, “Discovery of Potent Dual-Tailed Benzenesulfonamide Inhibitors of Human Carbonic Anhydrases Implicated in Glaucoma and in Vivo Profiling of Their Intraocular Pressure-Lowering Action” (J Med Chem, 2020).
# pKi: −log10 of the molar value.
# Assays:
# Carbonic anhydrase 1 = Carbonic anhydrase 1 (Homo sapiens, UniProt P00915)
# Description: Inhibition of recombinant human carbonic anhydrase 1 incubated for 6 hrs prior to testing measured for 10 to 100 secs by phenol red-based stopped-flow CO2 hydration assay
# Carbonic anhydrase 2 = Carbonic anhydrase 2 (Homo sapiens, UniProt P00918)
# Description: Inhibition of recombinant human carbonic anhydrase 2 incubated for 6 hrs prior to testing measured for 10 to 100 secs by phenol red-based stopped-flow CO2 hydration assay
# Carbonic anhydrase 4 = Carbonic anhydrase 4 (Homo sapiens, UniProt P22748)
# Sequence of Carbonic anhydrase 4 (P22748 whole entry): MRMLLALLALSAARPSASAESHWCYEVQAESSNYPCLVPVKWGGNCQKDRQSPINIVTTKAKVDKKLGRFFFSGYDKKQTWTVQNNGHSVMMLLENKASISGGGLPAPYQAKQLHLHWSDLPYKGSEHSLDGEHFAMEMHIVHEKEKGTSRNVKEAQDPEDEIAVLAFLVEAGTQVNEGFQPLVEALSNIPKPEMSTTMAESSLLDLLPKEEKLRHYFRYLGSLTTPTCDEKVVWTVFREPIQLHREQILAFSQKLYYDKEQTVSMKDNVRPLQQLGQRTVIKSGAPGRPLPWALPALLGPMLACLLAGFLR
# Description: Inhibition of recombinant human carbonic anhydrase 4 incubated for 6 hrs prior to testing measured for 10 to 100 secs by phenol red-based stopped-flow CO2 hydration assay
# Carbonic anhydrase 7 = Carbonic anhydrase 7 (Homo sapiens, UniProt P43166)
# Sequence of Carbonic anhydrase 7 (P43166 whole entry): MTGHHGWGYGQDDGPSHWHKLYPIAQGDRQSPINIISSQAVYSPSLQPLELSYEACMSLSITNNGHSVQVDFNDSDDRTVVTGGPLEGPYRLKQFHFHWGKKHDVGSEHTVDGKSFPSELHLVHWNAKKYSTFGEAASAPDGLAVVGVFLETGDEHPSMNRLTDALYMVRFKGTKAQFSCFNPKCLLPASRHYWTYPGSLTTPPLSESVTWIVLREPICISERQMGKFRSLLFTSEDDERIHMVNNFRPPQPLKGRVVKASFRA
# Description: Inhibition of recombinant human carbonic anhydrase 7 incubated for 6 hrs prior to testing measured for 10 to 100 secs by phenol red-based stopped-flow CO2 hydration assay
# Oryctolagus cuniculus = test: Antiglaucoma activity in hypertonic saline solution-induced New Zealand albino rabbit model of ocular hypertension assessed as reduction in intraocular pressure at 1% administered topically to eye measured after 240 mins by pneumotonometric- method; assay type: functional
# Sequence of Carbonic anhydrase 1 (P00915 whole entry): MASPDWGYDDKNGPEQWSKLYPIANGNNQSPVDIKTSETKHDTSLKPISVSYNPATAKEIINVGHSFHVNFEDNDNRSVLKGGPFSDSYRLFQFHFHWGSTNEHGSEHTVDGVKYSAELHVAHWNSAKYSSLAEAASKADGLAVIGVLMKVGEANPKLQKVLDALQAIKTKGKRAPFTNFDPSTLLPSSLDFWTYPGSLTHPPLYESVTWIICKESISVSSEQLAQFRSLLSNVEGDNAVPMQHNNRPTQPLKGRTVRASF
Compound,pKi (Carbonic anhydrase 1),pKi (Carbonic anhydrase 2),pKi (Carbonic anhydrase 4),pKi (Carbonic anhydrase 7),Activity (Oryctolagus cuniculus)
CC(=O)/C(=C\c1cccc([N+](=O)[O-])c1)C(=O)Nc1ccc(S(N)(=O)=O)cc1,7.12,8.16,6.41,7.33,–
CC(=O)/C(=C\c1ccc(F)cc1Cl)C(=O)Nc1ccc(S(N)(=O)=O)cc1,7.28,8.25,6.65,7.63,–
CC(=O)CC(=O)Nc1ccc(S(N)(=O)=O)cc1,7.16,7.40,6.05,6.56,–
CC(=O)/C(=C\c1ccccc1)C(=O)Nc1ccc(S(N)(=O)=O)cc1,7.16,8.36,6.02,7.35,–
CC(=O)/C(=C\c1ccc(Cl)cc1)C(=O)Nc1ccc(S(N)(=O)=O)cc1,7.39,9.21,6.84,8.37,1.3 mmHg
CC(=O)/C(=C\c1cccs1)C(=O)Nc1ccc(S(N)(=O)=O)cc1,7.31,8.54,6.09,8.28,–
NS(=O)(=O)c1ccc(NC(=O)/C(Cl)=N/Nc2ccccc2)cc1,6.64,7.39,5.13,7.17,–
COc1ccc(/C=C(\C(C)=O)C(=O)Nc2ccc(S(N)(=O)=O)cc2)cc1,7.82,9.35,6.22,8.51,1.5 mmHg
CC(=O)/C(=C\c1ccccc1Cl)C(=O)Nc1ccc(S(N)(=O)=O)cc1,8.14,9.44,6.42,8.54,2 mmHg
NS(=O)(=O)c1ccc(NC(=O)/C(Cl)=N/Nc2ccc(Br)cc2)cc1,6.03,6.58,< 5.00,5.99,–
NS(=O)(=O)c1ccc(NC(=O)/C(Cl)=N/Nc2ccc(Cl)cc2)cc1,7.36,8.52,6.04,8.21,–
NS(=O)(=O)c1ccc(NC(=O)/C(Cl)=N/Nc2ccc(F)cc2)cc1,6.53,7.46,5.13,7.33,–

# The next lines start with results.
pKi (Carbonic anhydrase 1),pKi (Carbonic anhydrase 2),pKi (Carbonic anhydrase 4),pKi (Carbonic anhydrase 7),Compound,Activity (Oryctolagus cuniculus)
7.23,8.30,5.83,8.36,COc1ccc(N/N=C(\C(C)=O)C(=O)Nc2ccc(S(N)(=O)=O)cc2)cc1OC,–
7.06,7.68,5.19,7.26,COc1ccc(N/N=C(\Cl)C(=O)Nc2ccc(S(N)(=O)=O)cc2)cc1,–
6.12,7.15,< 5.00,6.10,CC(=O)/C(=N\Nc1cccc([N+](=O)[O-])c1)C(=O)Nc1ccc(S(N)(=O)=O)cc1,–
5.58,8.28,< 5.00,5.77,CC(=O)/C(=N\Nc1ccc(Cl)cc1)C(=O)Nc1ccc(S(N)(=O)=O)cc1,–
7.09,8.37,< 5.00,6.19,CC(=O)/C(=N\Nc1ccccc1)C(=O)Nc1ccc(S(N)(=O)=O)cc1,–
6.15,6.56,< 5.00,5.44,COc1ccc(N/N=C(\C(C)=O)C(=O)Nc2ccc(S(N)(=O)=O)cc2)cc1,–
6.29,7.28,< 5.00,6.12,CC(=O)/C(=N\Nc1ccc(C#N)cc1)C(=O)Nc1ccc(S(N)(=O)=O)cc1,–
< 5.00,6.43,< 5.00,< 5.00,CC(=O)/C(=N\Nc1ccc(Br)cc1)C(=O)Nc1ccc(S(N)(=O)=O)cc1,–
5.57,8.09,< 5.00,5.48,CC(=O)/C(=N\Nc1ccc(F)cc1)C(=O)Nc1ccc(S(N)(=O)=O)cc1,–
